Test [1] addresses T1, InhA (Mycobacterium tuberculosis, UniProt P9WGR1). The test can be described thus: Differential scanning fluorimetry (fluorescence-based thermal-shift assay). As to conditions: for ΔTm (thermal shift of InhA): fragments 5 mM, InhA 10 μM, NAD+ 1 mM. Type of test: binding. The method, then:
Differential scanning fluorimetry (DSF) was used to screen an in-house library of 800 rule-of-three-compliant fragments. A saturating concentration of the cofactor in oxidized form (1 mM NAD^+) was used in all the experiments to ensure that the cofactor binding site would be occupied by NAD^+ and that fragments would not bind there. […] Upon screening of the fragment library, a hit was defined where the melting point was increased by at least +3 °C at a concentration of 5 mM (Figure 1a).
The substrate binding regions of InhA are divided into three sites: site I, site II, and site III.
Differential scanning fluorimetry was used to screen a library of 800 fragments. The assay was performed in a 96 well plate format using a CFX Connect (Bio-Rad). Each well contained a solution of 10 μM InhA, 1 mM NAD^+, HEPES (50 mM), NaCl (150 mM), pH 7.5, 5× Sypro Orange, 5% DMSO, and fragments at 5 mM. […] Controls were made in quadruplicates for all the experiments.
For orientation: DSF heats the sample and reads unfolding from a dye or from intrinsic fluorescence.

The target of test [2] is T1, InhA. The test can be described thus: InhA enzymatic assay (NADH oxidation at 340 nm, 2-trans-octanoyl-CoA substrate). Type of test: biochemical. Conditions: for LE (ligand efficiency): LE = (1.37 × pIC50)/HA; for pIC50: average of three experiments. The method, then: The identified fragment hits were further evaluated by an InhA enzymatic assay using 2-trans-octanoyl-CoA as a substrate.[22]
The carboxylic acid in fragment 1 (P1) was replaced by an isosteric sulfonamide as a linker to synthesize compound 6 (Figure 2b). Docking experiments with Glide XP[23] […] All the synthesized compounds were tested at a concentration of 100 μM using the InhA enzymatic assay.
InhA activity was followed by a colorimetric assay that measured the oxidation of NADH at 340 nm in the presence of 2-trans-octanoyl-CoA as described before in a buffer that contained 30 mM PIPES, pH 7.5, 50 mM NaCl, 0.1 mM EDTA, and 100 nM InhA.[26] This was preincubated for 10 min at room temperature with 0.25 mM NADH and varying concentrations of the compounds with 1% (v/v) DMSO in a 150 μL reaction volume. The reaction was started by the addition of 2-trans-octanoyl-CoA at a final concentration of 1.5 mM, prepared as described previously.[22] Reactions were followed for 20 min using a plate reader (CLARIOstar, BMG LABTECH).

A further test has as its system M. tuberculosis H37Ra. The test can be described thus: Growth inhibition of M. tuberculosis H37Ra, 48 h cultivation. Type of test: cell-based, Mycobacterium tuberculosis. Conditions: for inhibition at 200 µM: Mycobacterium tuberculosis, H37RA, 200 μM compound in the media, 48 h cultivation. As for the experimental part: Further analysis of the effect on the synthesis of mycolic acids by metabolic labeling[24],[25] of the model strain M. tuberculosis H37Ra with ^14C acetate was also explored. A 48 h cultivation in the presence of 200 μM of the compounds in the media led to 84% growth inhibition for compound 19; 40% and 33% growth inhibition for compounds 14 and 23, respectively; 38% growth inhibition for compound 24 and isoniazid; 23% growth inhibition for compounds 25 and 26.
The culture of M. tuberculosis H37Ra was grown statically at 37 °C in Middlebrook 7H9 broth (Difco) supplemented with albumin–dextrose–catalase and 0.05% Tween 80. When the culture reached the OD600nm value of 0.290, it was divided into 10 mL aliquots and tested compounds dissolved in DMSO were added at 200 μM final concentrations, while isoniazid that served as a control inhibitor was at 40 μM. The final concentration of DMSO in each culture was at 1%. After 24 h of cultivation with shaking (120 rpm) in the presence of tested inhibitors, ^14C acetate (specific activity of 106 mCi/mmol) was added at a final concentration of 0.5 μCi/mL and the cells were cultivated for the next 24 h.

[3] abbreviates: 100 μM compound, read-out: Inh % (inhibition percentage of InhA).
Where [4] appears, read: supplementary CSV, read-out: % inhibition.

pIC50: −log10 of the molar value. Where two headings read alike, the source gives them in different places. Some results are limits rather than exact numbers.

T1 sequence (P9WGR1 whole entry, looked up, the tested form may be a part): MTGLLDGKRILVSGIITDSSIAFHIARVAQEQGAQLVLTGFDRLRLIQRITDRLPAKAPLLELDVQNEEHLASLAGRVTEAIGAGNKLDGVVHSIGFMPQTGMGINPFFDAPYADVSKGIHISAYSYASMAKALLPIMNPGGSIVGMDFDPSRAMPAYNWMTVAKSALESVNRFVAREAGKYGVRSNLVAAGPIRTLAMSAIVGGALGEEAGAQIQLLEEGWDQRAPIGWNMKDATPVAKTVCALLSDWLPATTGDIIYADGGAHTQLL

Turning to `O=C(O)/C=C/c1cccc(C(F)(F)F)c1` [compound 1, (E)-3-(3-(trifluoromethyl)phenyl)acrylic acid], the DTm on InhA [1] was determined as 3.2 oC. The “Inhibition of InhA” value at InhA [2] (2 mM fragment, triplicate) worked out at 0%.

Turning to `O=C(O)c1ccccc1C(=O)c1ccc(Cl)c([N+](=O)[O-])c1` [compound 2, 2-(4-chloro-3-nitrobenzoyl)benzoic acid], on InhA [1], the DTm stood at 4.2 oC and the “ΔTm (thermal shift of InhA)” value is “+4.2 °C”.

With `O=C(O)c1cc2ccccc2cc1O` [compound 3, 3-hydroxy-2-naphthoic acid], on InhA [1], the DTm was determined as 4.2 oC and the “ΔTm (thermal shift of InhA)” value is “+4.2 °C”.

In the case of `O=C(O)CCc1cccc(Cl)c1` [compound 4, 3-(3-chlorophenyl)propanoic acid], at InhA [1], the DTm came to 3 oC and the “ΔTm (thermal shift of InhA)” value was “+3.0 °C”.

Turning to `O=C(O)c1ccccc1-n1cccn1` [compound 5, 2-(1H-pyrazol-1-yl)benzoic acid], at InhA [1], the DTm worked out at 6 oC and the “ΔTm (thermal shift of InhA)” value was “+6.0 °C”.

`O=S(=O)(/C=C/c1cccc(C(F)(F)F)c1)Nc1ccccc1` [compound 6, (E)-N-Phenyl-2-(3-(trifluoromethyl)phenyl)ethene-1-sulfonamide]: the inhibition at 100 µM at InhA [2] (setting [3]) and at InhA [2] (setting [4]) was 54% in each case.

In the case of `O=S(=O)(/C=C/c1cccc(C(F)(F)F)c1)NC1CCNCC1` [compound 7, (E)-N-(Piperidin-4-yl)-2-(3-(trifluoromethyl)phenyl)ethene-1-sulfonamide], the inhibition at 100 µM at InhA [2] (setting [3]) and on InhA [2] (setting [4]) was 15% in each case.

As for `O=S(=O)(/C=C/c1cccc(C(F)(F)F)c1)Nc1cccnc1` [compound 8, (E)-N-(Pyridin-3-yl)-2-(3-(trifluoromethyl)phenyl)ethene-1-sulfonamide], the inhibition at 100 µM at InhA [2] (setting [3]) and on InhA [2] (setting [4]) was 17% throughout.

For `COC(=O)c1ccc(NS(=O)(=O)/C=C/c2cccc(C(F)(F)F)c2)cc1` [compound 9, Methyl-(E)-4-((2-(3-(trifluoromethyl)phenyl)vinyl)sulfonamido)benzoate], the inhibition at 100 µM on InhA [2] (setting [3]) and on InhA [2] (setting [4]) was 0% throughout.

For the molecule `CC(C)(C)OC(=O)Nc1ccc(NS(=O)(=O)/C=C/c2cccc(C(F)(F)F)c2)cc1` [compound 10, tert-Butyl-(E)-(4-((2-(3-(trifluoromethyl)phenyl)vinyl)sulfonamido)phenyl)carbamate], the inhibition at 100 µM on InhA [2] (setting [3]) and at InhA [2] (setting [4]) was 11% in each case.

As for `Nc1ccc(NS(=O)(=O)/C=C/c2cccc(C(F)(F)F)c2)cc1` [compound 11, (E)-N-(4-Aminophenyl)-2-(3-(trifluoromethyl)phenyl)ethene-1-sulfonamide], the inhibition at 100 µM at InhA [2] (setting [3]) and on InhA [2] (setting [4]) was 6% in each case.

For `COc1ccc(NS(=O)(=O)/C=C/c2cccc(C(F)(F)F)c2)cc1` [compound 12, (E)-N-(4-Methoxyphenyl)-2-(3-(trifluoromethyl)phenyl)ethene-1-sulfonamide], the inhibition at 100 µM on InhA [2] (setting [3]) and at InhA [2] (setting [4]) was 15% throughout.

Take `COC(=O)Cc1ccc(NS(=O)(=O)/C=C/c2cccc(C(F)(F)F)c2)cc1` [compound 13, Methyl-(E)-2-(4-((2-(3-(trifluoromethyl)phenyl)vinyl)sulfonamido)phenyl)acetate]: the inhibition at 100 µM at InhA [2] (setting [3]) and at InhA [2] (setting [4]) was 24% each time.

For the molecule `NCc1ccc(NS(=O)(=O)/C=C/c2cccc(C(F)(F)F)c2)cc1` [compound 14, (E)-N-(4-(Aminomethyl)phenyl)-2-(3-(trifluoromethyl)phenyl)ethene-1-sulfonamide], the inhibition (usually the change of the read-out against control, counted positive when it falls) at 200 µM in the test with M. tuberculosis H37Ra is 40%. Also, the inhibition at 100 µM at InhA [2] (setting [3]) was more than 90%. Further, on InhA [2], the “LE (ligand efficiency)” value is recorded as 0.29 and the pIC50 (in general, the negative decadic logarithm of the IC50, by convention in mol/L) is 5.05. For the same molecule, the “fold increase of the potency from compound 6” value at InhA [2] (compared to compound 6) was found to be 10 fold. Also, the inhibition at 100 µM on InhA [2] (setting [4]) is more than 90%.

Turning to `CNCc1ccc(NS(=O)(=O)/C=C/c2cccc(C(F)(F)F)c2)cc1` [compound 15, (E)-N-(4-((Methylamino)methyl)phenyl)-2-(3-(trifluoromethyl)phenyl)ethene-1-sulfonamide], the inhibition at 100 µM at InhA [2] (setting [3]) and at InhA [2] (setting [4]) was 0% throughout.

For the molecule `CC(=O)NCc1ccc(NS(=O)(=O)/C=C/c2cccc(C(F)(F)F)c2)cc1` [compound 16, (E)-N-(4-((2-(3-(Trifluoromethyl)phenyl)vinyl)sulfonamido)benzyl)acetamide], the inhibition at 100 µM at InhA [2] (setting [3]) and on InhA [2] (setting [4]) was 25% each time.

For the molecule `O=C(O)c1ccc(NS(=O)(=O)/C=C/c2cccc(C(F)(F)F)c2)cc1` [compound 17, (E)-4-((2-(3-(Trifluoromethyl)phenyl)vinyl)sulfonamido)benzoic Acid], the inhibition at 100 µM on InhA [2] (setting [3]) and at InhA [2] (setting [4]) was 0% in each case.

Regarding `O=S(=O)(/C=C/c1cccc(C(F)(F)F)c1)Nc1ccc2c(c1)CNCC2` [compound 20, (E)-N-(1,2,3,4-Tetrahydroisoquinolin-7-yl)-2-(3-(trifluoromethyl)phenyl)ethene-1-sulfonamide], the inhibition at 100 µM at InhA [2] (setting [3]) and on InhA [2] (setting [4]) was 0% each time.

Turning to `CC(C)(C)c1ccc(S(=O)(=O)Nc2cccc(CN)c2)cc1` [compound 21, N-(3-(Aminomethyl)phenyl)-4-(tert-butyl)benzenesulfonamide], the inhibition at 100 µM on InhA [2] (setting [3]) and at InhA [2] (setting [4]) was 40% throughout.

As for `NCc1cccc(NS(=O)(=O)CCc2cccc3ccccc23)c1` [compound 22, N-(3-(Aminomethyl)phenyl)-2-(naphthalen-1-yl)ethane-1-sulfonamide], the inhibition at 100 µM at InhA [2] (setting [3]) and on InhA [2] (setting [4]) was 17% in each case.

As to `Cc1c(S(=O)(=O)Nc2cccc(CN)c2)sc2ccc(Cl)cc12` [compound 23, N-(3-(Aminomethyl)phenyl)-5-chloro-3-methylbenzo[b]thiophene-2-sulfonamide], the “activity against M. tuberculosis” value with M. tuberculosis H37Ra was “inactive”. This molecule also returned an inhibition at 200 µM with M. tuberculosis H37Ra of 33%. Besides, the inhibition at 100 µM on InhA [2] (setting [3]) and at InhA [2] (setting [4]) was more than 90% throughout.

Regarding `Cc1c(S(=O)(=O)Nc2cccc(CN)c2)sc2ccc(F)cc12` [compound 24, N-(3-(Aminomethyl)phenyl)-5-fluoro-3-methylbenzo[b]thiophene-2-sulfonamide], the inhibition at 200 µM in the test with M. tuberculosis H37Ra was 38%. In addition, the inhibition at 100 µM at InhA [2] (setting [3]) and at InhA [2] (setting [4]) was more than 90% throughout. At InhA [2], the “LE (ligand efficiency)” value was found to be 0.40. On InhA [2], this molecule gave a negative logarithm of the IC50 (pIC50) of 6.60.

Molecule `NCc1cccc(NS(=O)(=O)c2cc3ccccc3s2)c1` [compound 25, N-(3-(Aminomethyl)phenyl)benzo[b]thiophene-2-sulfonamide] had an inhibition at 200 µM in the test with M. tuberculosis H37Ra of 23%. The inhibition at 100 µM on InhA [2] (setting [3]) and at InhA [2] (setting [4]) was more than 90% in each case. Also, the pIC50 against InhA [2] is 5.22.

Molecule `NCc1cccc(NS(=O)(=O)c2cc3ccccc3o2)c1` [compound 26, N-(3-(Aminomethyl)phenyl)benzofuran-2-sulfonamide] yielded an inhibition at 200 µM in the test with M. tuberculosis H37Ra of 23%. Further, the inhibition at 100 µM at InhA [2] (read-out: Inh % (inhibition percentage of InhA)) and at InhA [2] (setting [4]) was 66% throughout.

Take “(E)-4-((2-(3-(Trifluoromethyl)phenyl)vinyl)sulfonamido)benzamide [compound 18]”: the “Inh % (inhibition percentage of InhA)” value at InhA [2] (100 μM compound) stood at 0%. Moreover, on InhA [2] (supplementary CSV), the % inhibition (as a rule, the drop in the measured response relative to a control, in per cent) was 0%.
